The values that follow come from patent US20250275964A1, “METHODS OF INHIBITING LIVER-TYPE GLUTAMINASE, GLS2” (CORNELL UNIVERSITY, priority 2019, published 2025).

pEC50: −log10 of the molar value.

For data set [1], the system named is MDA-MB-231 cells carrying the plasmid vector only. As to the kind of experiment: 6-day cell proliferation assay, MDA-MB-231 vector only. The class given is cell-based, human. Particulars: 6 days. The protocol: (§1) Culture medium was added to 12-well plates (1 ml/well) and wells were seeded with cells at Day 0 as follows. MCF7, T-47D, BT-474, HCC38 cells: […] cells/well. MDA-MB-453 and MDA-MB-231 cells: 1×10^4 cells/well. TSE and Hs 578T cells: 0.3×10^4 cells/well. After 16 hours, culture medium was replaced with fresh medium supplemented with appropriate concentrations of inhibitors and was subsequently replaced every 48 hours. On Day 6 cells were trypsinized and suspended in an appropriate volume of culture medium, and the total number of cells per well was determined using a hemocytometer or a TC20 Automated Cell Counter (Bio-Rad).
Vectors for expressing human GAC or GLS2 in breast cancer cell lines were based on pCDNA3.1/V5-His TOPO (Thermo Fisher Scientific), with the appropriate gene sub-cloned in and the tag switched to HA-tag or myc-tag for immunofluorescence experiments. Vectors pQE80-GAC-72-598 and pQE80-GLS2-38-602, for expressing the processed forms of human GAC (residues 72 to 598) or GLS2 (residues 38 to 602) in E. coli, were described in Huang et al., “Characterization of the Interactions of Potent Allosteric Inhibitors with Glutaminase C, a Key Enzyme in Cancer Cell Glutamine Metabolism,” J. Biol. Chem. 293:3535-3545 (2018), which is hereby incorporated by reference in its entirety.
For 60 mm dish format. […]

Data set [2] has as its system glutaminase activity in mitochondria isolated from breast cancer cell lines. As to the kind of experiment: Mitochondrial glutaminase activity assay. The data set is classed as biochemical, human. An excerpt: Breast cancer cells were fractionated into cytosolic, mitochondrial, and nuclear components via partial lysis and centrifugation using the Qproteome Mitochondria Isolation Kit (Qiagen). For all samples, a portion of the starting material (i.e. whole cells) was retained for comparison with the isolated fractions. When cellular fractions were to be analyzed only by western blot, a single 10 cm dish of exponentially growing cells was used. When mitochondria were isolated for glutaminase assays, two 15 cm dishes of exponentially growing cells were used.
A two-reaction protocol was used to measure mitochondrial glutaminase activity. […] The reaction was then quenched by addition of 10 μl of 2.4 M HCl, and samples placed on ice. Next, 20 μl of quenched Reaction Mix 1 was added to 200 μl of Reaction Mix 2 (1 unit bovine liver glutamate dehydrogenase (Sigma-Aldrich), 80 mM Tri-HCl pH 9.4, 200 mM hydrazine, 0.25 mM ADP, 2 mM NAD) and samples were incubated for 1 hour at room temperature. The absorbance at 340 nm was then measured against a matched sample in which heat-inactivated mitochondria (immersed in boiling water for 5 minutes) were used. A standard curve was prepared using given concentrations of glutamate in Reaction Mix 2, allowing the amount of glutamate produced in Reaction 1 to be determined.

Data set [3] has as its system breast cancer cell lines. In words: 6-day cell proliferation assay, collection of breast cancer cell lines. The class given is cell-based, human. Here is the method:
Human breast cancer cell lines MCF7, BT-474, T-47D, MDA-MB-453, MDA-MB-231, Hs 578T, HCC38, SK-BR-3, and DU4475 were purchased from the American Type Culture Collection (ATCC) and no additional cell authentication was performed. The TSE human breast cancer cell line was supplied by Dr. Steven Abcouwer (University of Michigan). All breast cancer cells were cultured at 37° C. under a 5% CO2 atmosphere in RPMI 1640 medium containing 2 mM glutamine (Gibco) and supplemented with 10% fetal bovine serum (FBS) (Gibco). The 293T cell line (ATCC) used for generating lentivirus particles was cultured as above but using DMEM, high glucose (Gibco).
as §1

The nature of data set [4]: Gross toxicity in treated mice. The data set is classed as in vivo. The following applies: 10 mg/kg body weight, three times weekly for three weeks. The protocol:
All experiments involving mice were carried out according to protocols approved by the Institutional Animal Care and Use Committee at Cornell University. In all cases, 6-8 week old female NOD.Cg-Prkdcscid Il2rg^tm1Wjl/SzJ (NSG) mice (The Jackson Laboratory) were used. For xenograft experiments, a suspension of MDA-MB-453 breast cancer cells (or derivative cell lines stably expressing shRNAs) was mixed 1:1 with Matrigel Matrix (BD Biosciences) to give a final concentration of 3×10^6 cells per 100 μl, and 3×10^6 cells were immediately injected into each of the two flanks of 6-8 week old female NOD.Cg-Prkdc^scid Il2rg^tm1Wjl/SzJ (NSG) mice (n=3 mice per condition). Tumor sizes were measured using calipers, and estimated volumes were calculated using the formula V=(π/6)×length×width^2, as described previously (Tomayko et al., “Determination of Subcutaneous Tumor Size in Athymic (Nude) Mice,” Cancer Chemother Pharmacol. 24:148-154 (1989), which is hereby incorporated by reference in its entirety). For experiments using MDA-MB-453 cells stably expressing shRNAs, mice were sacrificed after 6 weeks. For 968 treatment studies, when tumors of 1-2 mm diameter were detected, the mice were randomly divided into two groups and intraperitoneal (IP) injections of 968 (10 mg/kg) solution or carrier solution were initiated and carried out three times weekly. […]

For data set [5], the target named is T1, recombinant full-length human GLS (GAC splice variant) (Homo sapiens, UniProt O94925).
T1 construct: processed forms of human GAC (residues 72 to 598); inferred from pQE80 vector and Ni-NTA/imidazole purification; made in house; host or cells: E. coli BL21(DE3)
T1 sequence (O94925 72-598 isoform O94925-3): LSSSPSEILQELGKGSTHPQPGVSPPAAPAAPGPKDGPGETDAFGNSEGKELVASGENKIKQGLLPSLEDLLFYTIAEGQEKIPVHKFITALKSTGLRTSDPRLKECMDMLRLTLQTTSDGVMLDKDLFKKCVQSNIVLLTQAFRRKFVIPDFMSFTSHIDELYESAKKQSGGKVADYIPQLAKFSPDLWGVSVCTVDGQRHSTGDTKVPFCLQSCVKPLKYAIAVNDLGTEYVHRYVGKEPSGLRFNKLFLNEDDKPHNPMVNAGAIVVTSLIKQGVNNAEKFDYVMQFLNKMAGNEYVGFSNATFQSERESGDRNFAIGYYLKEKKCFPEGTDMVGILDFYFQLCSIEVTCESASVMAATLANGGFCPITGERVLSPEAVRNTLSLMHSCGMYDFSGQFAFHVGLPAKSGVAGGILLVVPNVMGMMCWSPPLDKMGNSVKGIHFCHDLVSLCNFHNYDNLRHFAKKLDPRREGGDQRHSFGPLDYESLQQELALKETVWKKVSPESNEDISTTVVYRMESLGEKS
Particulars: previously reported (Wang et al. 2010); cited from earlier work.

Data set [6] relates to primary human mammary epithelial cells or fibroblasts. The following applies: Wang et al. 2010; cited from earlier work.

Consider `O=C(Cc1ccccc1)Nc1nnc(CCSCCc2nnc(NC(=O)Cc3ccccc3)s2)s1` [BPTES], for which, in data set [1], the pEC50 – broadly, −log10 of the EC50, conventionally taken in molar units – was 5.89. Also, the “inhibition of mitochondrial glutaminase activity” value in data set [2] (mitochondria from MDA-MB-453 cells) was “no effect on activity”; in data set [2] (mitochondria from basal-subtype cells, 10 μM), “almost completely abolished”; in data set [2] (mitochondria from luminal-subtype breast cancer cells), “only partially inhibited”.
As to `CN(C)c1ccc(C2Nc3ccc4ccccc4c3C3=C2C(=O)CC(C)(C)C3)cc1Br` (stereo not shown) [Compound 968], the negative-log EC50 (pEC50) in data set [3] (breast cancer cells, 6 days) is 5.30 to 5.52; in data set [1] it was 5.70. Moreover, in data set [3] (cells with highest expression of GLS), the maximal inhibition is reported as 70-75%. Further, in data set [4], the toxicity result is “no gross evidence of toxicity”. In addition, the “binding and inhibition of GLS splice variant GAC” value in data set [5] was “binds and inhibits”. For the same molecule, the “growth of primary human mammary epithelial cells or fibroblasts” value in data set [6] is listed as “does not affect the growth”.
